Measured values: patent US20250049717A1, “DRY POWDER FORMULATIONS OF NARROW SPECTRUM KINASE INHIBITORS” (Pulmatrix Operating Company, Inc., priority 2021, published 2025)

Assay: Excipient compatibility study, stressed storage, impurities by HPLC
Type: physicochemical
Protocol: Compound A Content/Purity using HPLC. A high performance liquid chromatography (HPLC) method utilizing a reverse phase C18 column coupled to an ultraviolet (UV) detector has been developed for the identification, bulk content, assay, CUPMD and impurities analysis of formulations of Compound A. The reverse phase column is equilibrated to 40° C. and the autosampler is set to 5° C. The mobile phases, 10 mM ammonium acetate with 0.1% TFA (mobile phase A) and acetonitrile (mobile phase B) are used in a gradient elution from a ratio of 70:30 (A:B) to 0:100 (A:B), over the course of a 20 minute run time. Detection is by UV at 260 nm and the injection volume is 30 μL. Compound A content in powders are quantified relative to a standard curve. Formula strength can be determined by measuring the amount of Compound A in the bulk powder with HPLC, then dividing the measured amount by the nominal amount of Compound A in the powder. A formula strength of a dry powder disclosed herein may be between about 90% and about 105%, e.g., about 93%, about 94%, about 95%, about 96%, about 97%, about 98%, about 99%, about 100%, about 101%, or about 102%.
The spray dried Compound A formulations were exposed to stressed storage conditions for up to two weeks to assess the potential for excipient-induced degradation. The powders were added to 4 mL vials and exposed to 60° C./30% RH, 70° C./10% RH and 80° C./50% RH. Testing for impurities occurred at t=0, t=3 days, t=7 days and t=14 days for samples held at 60° C./30% RH and 70° C./10% RH and at t=0, t=3 days and t=7 days for samples held at 80° C./50% RH. Control samples including Formulation VI, comprising 50% micronized Compound A, 45% sodium chloride, and 5% polysorbate 80 as well as as-received micronized Compound A were included in an attempt to decouple particle size effects and/or the degradation potential of polysorbate 80.

## Cc1ccc(-n2nc(C(C)(C)C)cc2NC(=O)Nc2ccc(Oc3ccnc(Nc4ccccc4)n3)c3ccccc23)cc1 [Compound A, 1-(3-tert-butyl-1-p-tolyl-1H-pyrazol-5-yl)-3-(4-(2-(phenylamino)pyrimidin-4-yloxy)naphthalen-1-yl)urea]
60 C./30% RH, 3 days
  Total Impurities: 0.28 % w/w
  Total Known Impurities: 0.20 % w/w
  Total Unknown Impurities: 0.08 % w/w
60 C./30% RH, 7 days
  Total Impurities: 0.26 % w/w
  Total Known Impurities: 0.17 % w/w
  Total Unknown Impurities: 0.09 % w/w
60 C./30% RH, 14 days
  Total Impurities: 0.21 % w/w
  Total Known Impurities: 0.14 % w/w
  Total Unknown Impurities: 0.07 % w/w
70 C./10% RH, 3 days
  Total Impurities: 0.29 % w/w
  Total Known Impurities: 0.19 % w/w
  Total Unknown Impurities: 0.11 % w/w
70 C./10% RH, 7 days
  Total Impurities: 0.31 % w/w
  Total Known Impurities: 0.17 % w/w
  Total Unknown Impurities: 0.14 % w/w
70 C./10% RH, 14 days
  Total Impurities: 0.20 % w/w
  Total Known Impurities: 0.13 % w/w
  Total Unknown Impurities: 0.08 % w/w
80 C./50% RH, 3 days
  Total Impurities: 0.24 % w/w
  Total Known Impurities: 0.16 % w/w
  Total Unknown Impurities: 0.09 % w/w
80 C./50% RH, 7 days
  Total Impurities: 0.32 % w/w
  Total Known Impurities: 0.14 % w/w
  Total Unknown Impurities: 0.18 % w/w
Time point 0 days
  Total Impurities: 0.29 % w/w
  Total Known Impurities: 0.22 % w/w
  Total Unknown Impurities: 0.07 % w/w
